The values that follow come from patent US11919856B2, “Compounds” (UCL BUSINESS LTD, priority 2018, dated 2024).

The target of data set [1] is antithrombin (Homo sapiens, UniProt P01008). The data set can be described thus: Serpin inhibitory activity, antithrombin. The format is biochemical. Conditions: incubation with 50 μM. The text has this:
(§1) In order to investigate suitability of Compound 1 for progression into in vivo studies and the potential for taking forward as a clinical candidate for testing in human, Compound 1 was profiled against a panel of in vitro assays for off-targets considered predictive of potential safety liabilities. […] The measured potency of these marginal activities were at least 10-fold below the cellular activity of Compound 1 at blocking Z α1-antitrypsin polymerisation (pEC50 6.3). Loss of inhibitory activity represents a means by which possible off-target engagement with other serpins can be evaluated. However in contrast to α1-antitrypsin upon incubation with 50 μM Compound 1 the inhibitory activity of the homologues antithrombin, neuroserpin and antichymotrypsin was not affected.

In data set [2] the target is T1, neuroserpin (Homo sapiens, UniProt Q99574).
T1 sequence (Q99574 17-410): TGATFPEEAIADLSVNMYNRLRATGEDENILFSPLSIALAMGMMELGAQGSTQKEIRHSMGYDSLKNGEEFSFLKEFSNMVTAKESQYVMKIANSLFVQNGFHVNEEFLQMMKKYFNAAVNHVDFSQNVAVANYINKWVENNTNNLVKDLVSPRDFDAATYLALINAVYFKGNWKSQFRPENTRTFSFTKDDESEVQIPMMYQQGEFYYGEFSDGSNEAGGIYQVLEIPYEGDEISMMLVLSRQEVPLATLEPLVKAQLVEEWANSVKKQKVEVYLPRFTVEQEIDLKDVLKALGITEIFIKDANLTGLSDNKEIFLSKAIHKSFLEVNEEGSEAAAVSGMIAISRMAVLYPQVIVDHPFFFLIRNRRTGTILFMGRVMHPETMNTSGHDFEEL
Description: Serpin inhibitory activity, neuroserpin. The note with it: incubation with 50 μM. The format is biochemical.
Excerpt: as §1

Data set [3] is described as follows: Permeability. The format is in vitro ADME.
For data set [4], the target named is T2, Z α1-antitrypsin (Homo sapiens, UniProt P01009, E366K/V237A). Description: Polymerisation of Z α1-antitrypsin in iPSC-derived hepatocytes (ZZ genotype). In kind it is cell-based. More on the design: a random insertion of the human Z α1-antitrypsin gene; from tissue; host or cells: liver and plasma of Z α1-antitrypsin transgenic mice (human Z transgene). Conditions: read-out: pIC50, polymerisation of Z α1-antitrypsin (converted). The protocol: In order to confirm that the potency and efficacy of Compound 1 in CHO-TET-ON-Z-A1AT was a reasonable estimate of what could be expected in hepatocytes with endogenous levels of expression, the effect of Compound 1 on the secretion and polymerisation of Z α1-antitrypsin was measured in iPSC-derived hepatocytes with the ZZ α1-antitrypsin genotype (Yusa et al. Nature. 2011; 478:391-4).

Data set [5] concerns the target T2, Z α1-antitrypsin. The data set can be described thus: Circulating monomeric Z α1-antitrypsin in plasma of Z α1-antitrypsin transgenic mice. More on the design: a random insertion of the human Z α1-antitrypsin gene; from tissue; host or cells: liver and plasma of Z α1-antitrypsin transgenic mice (human Z transgene). In kind it is in vivo. The method, then: In order to investigate the therapeutic potential of Compound 1 in Z α1-antitrypsin deficiency, the compound was tested in a transgenic mouse model engineered with a random insertion of the human Z α1-antitrypsin gene (Teckman et al. Am J Physiol Gastrointest Liver Physiol. 2004; 286:G851-G62). To determine a suitable dose regimen for Compound 1 in these studies the total and unbound exposure in transgenic mice was estimated in an in silico model.
To explore the PK-PD relationship of Compound 1, Z α1-antitrypsin transgenic animals were dosed with 100, 30 or 10 mg/kg Compound 1 three times a day and on day 6 blood and liver were harvested at 3 hr (˜Cmax) and 8 hr (Cmin) after the dose for the measurement of total and free drug in both tissues. Blood was also harvested for the measurement of monomeric Z α1-antitrypsin in plasma. Total concentrations of Compound 1 were determined by specific LC-MS/MS assay and the free unbound drug in both tissues was determined using equilibrium dialysis and used to derive unbound concentrations.
Recent work has shown that a significant fraction of the total Z α1-antitrypsin in the circulation is in the polymeric conformation (Tan et al. Eur Respir J. 2014; 43(5):1501-4). […] Monomeric Z α1-antitrypsin was measured in plasma samples following 6 days of dosing and levels were normalised to each animals' pre-dose control levels to account for the natural variation of Z α1-antitrypsin between animals. […]
Since Compound 1 blocks polymer formation in cells the effect of dosing Compound 1 on liver polymer levels was explored. […] On days 15 and 21 of dosing, changes of monomeric Z α1-antitrypsin plasma samples were determined as above, and increases of 7- to 8-fold over the pre-dosing baseline levels were observed, similar to the effect in animals dosed for 3 or 6 days, consistent with sustained target engagement through the dosing period. […] There was no difference observed in total liver polymer load via manual or quantitative scoring.

T2 sequence (P01009 25-418 V237A/E366K): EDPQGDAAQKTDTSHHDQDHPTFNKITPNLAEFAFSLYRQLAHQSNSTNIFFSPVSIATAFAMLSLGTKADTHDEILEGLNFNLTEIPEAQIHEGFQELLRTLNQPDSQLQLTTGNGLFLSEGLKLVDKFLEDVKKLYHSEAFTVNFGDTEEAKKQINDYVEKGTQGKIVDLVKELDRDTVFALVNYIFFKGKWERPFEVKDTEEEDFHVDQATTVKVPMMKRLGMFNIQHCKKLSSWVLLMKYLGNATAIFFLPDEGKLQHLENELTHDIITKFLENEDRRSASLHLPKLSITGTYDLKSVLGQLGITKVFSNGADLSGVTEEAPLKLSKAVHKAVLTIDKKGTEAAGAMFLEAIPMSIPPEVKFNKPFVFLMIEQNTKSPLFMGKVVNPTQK
antithrombin, sequence (P01008 33-464): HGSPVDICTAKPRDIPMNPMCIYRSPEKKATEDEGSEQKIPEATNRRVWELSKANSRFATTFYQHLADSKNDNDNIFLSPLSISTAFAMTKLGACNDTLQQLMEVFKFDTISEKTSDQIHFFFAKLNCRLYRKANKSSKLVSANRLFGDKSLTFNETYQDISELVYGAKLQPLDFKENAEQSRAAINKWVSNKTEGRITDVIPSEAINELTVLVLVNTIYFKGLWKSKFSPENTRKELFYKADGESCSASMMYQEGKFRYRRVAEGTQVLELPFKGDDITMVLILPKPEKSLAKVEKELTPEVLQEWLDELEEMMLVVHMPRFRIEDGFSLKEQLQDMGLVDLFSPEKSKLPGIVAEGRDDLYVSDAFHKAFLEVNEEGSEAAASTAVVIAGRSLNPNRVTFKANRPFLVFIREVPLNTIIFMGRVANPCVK

Regarding `CCC[C@@H](NC(=O)c1cccc2c1CC(=O)N2)[C@@H](O)c1cccc(F)c1C` [Compound 1, N-[(1S,2R)-1-(3-fluoro-2-methylphenyl)-1-hydroxypentan-2-yl]-2-oxo-2,3-dihydro-1H-indole-4-carboxamide], the “inhibitory activity of antithrombin” value in data set [1] is on record as “not affected”. The “inhibitory activity of neuroserpin” value in data set [2] is on record as “not affected”. Further, in data set [3], the Permeability entry is given as “high”. Further, in data set [4], the IC50 is 398 nM. In addition, the “increase in circulating Z α1-antitrypsin” value in data set [5] (30 mg/kg and 10 mg/kg three times a day, 6 days) is listed as “significant, dose-dependent increases”. Moreover, the “increase of plasma concentrations of the serpin” value in data set [5] (transgenic mouse model) is “up to 8 fold”. For the same compound, the “increase in circulating levels of Z α1-antitrypsin” value in data set [5] (within 3 days of dosing, maintained throughout the experiment) is given as 7 fold.
